# PMC5657534 (Nature chemical biology, 2017)
# Biological target: ClbH (full-length) (Escherichia coli, UniProt Q0P7J8)
# Test: ATP-[…]PPi exchange
# Type: biochemical
# Settings: Mg2+, pH 8.3, room temperature, 1 mM amino acid
# Sequence of ClbH (full-length) (Q0P7J8 1-1598): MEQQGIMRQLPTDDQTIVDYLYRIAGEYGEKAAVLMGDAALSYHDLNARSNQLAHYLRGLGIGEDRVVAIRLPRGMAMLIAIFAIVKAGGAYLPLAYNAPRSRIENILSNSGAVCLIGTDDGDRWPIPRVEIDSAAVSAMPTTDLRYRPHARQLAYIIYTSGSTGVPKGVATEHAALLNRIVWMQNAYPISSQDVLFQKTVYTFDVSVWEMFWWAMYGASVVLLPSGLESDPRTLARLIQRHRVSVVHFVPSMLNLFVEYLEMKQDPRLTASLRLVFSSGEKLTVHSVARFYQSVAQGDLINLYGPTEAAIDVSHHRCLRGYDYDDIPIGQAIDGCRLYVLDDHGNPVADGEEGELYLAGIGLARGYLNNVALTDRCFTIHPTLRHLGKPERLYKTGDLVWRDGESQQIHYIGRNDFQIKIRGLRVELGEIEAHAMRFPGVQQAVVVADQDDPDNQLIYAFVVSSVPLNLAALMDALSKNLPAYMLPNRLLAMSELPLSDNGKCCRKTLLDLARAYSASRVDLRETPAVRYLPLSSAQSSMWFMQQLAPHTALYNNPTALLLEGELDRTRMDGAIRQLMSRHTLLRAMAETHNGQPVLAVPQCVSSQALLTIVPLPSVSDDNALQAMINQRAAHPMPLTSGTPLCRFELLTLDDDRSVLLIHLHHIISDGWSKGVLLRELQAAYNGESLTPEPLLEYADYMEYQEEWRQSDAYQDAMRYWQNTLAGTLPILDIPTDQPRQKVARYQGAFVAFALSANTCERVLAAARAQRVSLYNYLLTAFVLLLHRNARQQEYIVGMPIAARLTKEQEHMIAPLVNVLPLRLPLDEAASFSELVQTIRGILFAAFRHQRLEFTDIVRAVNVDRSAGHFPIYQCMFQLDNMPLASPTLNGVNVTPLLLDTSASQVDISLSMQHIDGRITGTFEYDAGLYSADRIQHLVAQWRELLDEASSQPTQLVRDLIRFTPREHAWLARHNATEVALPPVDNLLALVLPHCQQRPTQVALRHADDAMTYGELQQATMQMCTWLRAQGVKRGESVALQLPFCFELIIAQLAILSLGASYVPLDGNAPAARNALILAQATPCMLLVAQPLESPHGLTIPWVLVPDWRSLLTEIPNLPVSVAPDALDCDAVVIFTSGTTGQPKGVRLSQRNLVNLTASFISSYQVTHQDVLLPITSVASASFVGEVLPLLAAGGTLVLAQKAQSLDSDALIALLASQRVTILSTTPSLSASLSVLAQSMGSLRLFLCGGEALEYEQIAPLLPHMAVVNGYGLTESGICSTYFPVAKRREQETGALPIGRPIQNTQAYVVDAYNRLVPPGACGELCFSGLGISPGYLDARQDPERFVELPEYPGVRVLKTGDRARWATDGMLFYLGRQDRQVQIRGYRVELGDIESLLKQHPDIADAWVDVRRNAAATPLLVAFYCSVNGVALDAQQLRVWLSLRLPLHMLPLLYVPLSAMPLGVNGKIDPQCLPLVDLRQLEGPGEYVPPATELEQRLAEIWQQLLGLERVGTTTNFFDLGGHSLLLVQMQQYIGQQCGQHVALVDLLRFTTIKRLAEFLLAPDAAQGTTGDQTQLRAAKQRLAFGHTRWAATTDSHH
smiles,measurement,value
N[C@@H](CO)C(=O)O [L-Ser],ATP-[32P]PPi exchange,full-length ClbH activated L-Ser and SAM (Fig. 1b)
